{
  "source": "patent US9624491B2",
  "about": "“Methods and compositions for the detection and treatment of cancer involving miRNAs and miRNA inhibitors and targets” (Memorial Sloan Kettering Cancer Center, priority 2010, dated 2017)",
  "key": {"[1]": {"system": "PTEN, BCL2L11, PHF6, IKZF1, NF1, FBXW7", "test": "3′UTR reporter, quantitative PCR and immunoblot assays of tumor suppressor genes in murine leukemias", "type": "cell-based", "settings": "murine T-ALLs expressing NOTCH1 and miRNA, mRNA, protein", "procedure": "Immunoblots of whole cell lysates were performed as described (Wendel, et al., 2004). Antibodies were against Bim/Bcl2l11 (AAP-330, 1:1000, Assay Designs), Nf1 (sc67, 1:100, Santa Cruz), Cdc4/Fbxw7 (ab7405, 1:500, Abeam), Ikzf1 (sc-13039, 1:500, Santa Cruz), Phf6 (NB100-79861, 1:1000, Novus Biologicals), Pten (9559, 1:1000, Cell Signaling), tubulin (1:5000; Sigma, B-5-1-2) and actin (1:5000; Sigma, AC-15).\nTotal RNA and miRNA-enriched RNA was extracted using the Allprep DNA/RNA/Protein and miRNeasy Mini kits. Pathological diagnosis was by expert hematopathologists at Weill Cornell Medical Center. cDNA synthesis, PCR and analysis by the ΔΔ Ct method were as described (Mavrakis, et al., 2008) and utilized Taqman Gene Expression Assays: Bcl2l11 (Mm00437796_m1), BCL2L11 (Hs00197982_m1), Pten (Mm01212532_m1), PTEN (Hs02621230_s1), Nf1 (Mm00812430_m1), NF1 (Hs01035104_m1), Ikzf1 (Mm01187878_m1), IKZF1 (Hs00172991_m1), Fbxw7 (Mm00504452_m1), FBXW7 (Hs00217794_m1), Phf6 (Mm00804415_m1), and Mouse GAPD (GAPDH) (4352932, Applied Biosystems). Expression was normalized to RNU6B (001093, Applied Biosystems).\nThe mouse FBXW7 (bp 2793-4139; acc. no. NM_001177773), human NF1 (bp 10033-10666; acc. no NM_000267), human PHF6 (bp position 3271-4299; acc. no. NM_001015877) and Bim (bp. 3155-4773; acc. no. NM_009754) 3′UTR fragments were generated by PCR and cloned into the psi-CHECK-2 vector (Promega) with the exception of the IKZF1 3′UTR, which was purchased from Genecopoeia (cat no. HmiT000397b, by 2343-4471 of UTR). The assays were performed as described (Xiao, et al., 2008)."}, "NOTCH1-induced T-ALL": {"system": "NOTCH1-induced T-ALL", "test": "Mouse model of Notch-ICN (NOTCH1)-induced T-ALL, adoptive transfer of transduced HPCs", "type": "in vivo", "settings": "HPCs expressing NOTCH1-ICN plus miRNA or shRNA transplanted into irradiated recipients", "procedure": "Can miR-19 drive the development of lymphatic malignancies in vivo? Based on the miR-19 expression and translocation data, miR-19 was assessed in a mouse model of T-ALL (Pear, et al., 1996). Briefly, most cases of T-ALL carry mutations in the Notch1 gene, and, like the […] translocation, these generate the constitutively active intracellular domain of NOTCH1 (Notch-ICN) (Weng, et al., 2004). To test miR-19's ability to promote Notch-ICN-induced T-ALL in vivo, HPCs were adoptively transferred into irradiated recipients (FIG. 3d). […] At the same time, 80% of the mice receiving HPCs expressing only Notch-ICN remained disease free (p=0.0003) (FIG. 3e).\nThe mouse models of Notch1-induced T-ALL and the EμMyc lymphoma based on adoptive transfer of retrovirally transduced HPCs have been reported (Pear, et al., 1996), (Wendel, et al., 2004). Data were analyzed in Kaplan-Meier format using the log-rank (Mantel-Cox) test for statistical significance. The p53 loss of heterozygosity polymerase chain reaction (LOH PCR) and immunophenotyping by surface marker analysis were as described (Wendel, et al., 2004).\nA murine model of NOTCH1-induced T-ALL was used to directly test the oncogenic potential of the most promising miRNAs in vivo. Briefly, HPCs were transduced with NOTCH1 together with either empty vector or an miRNA and transplanted into irradiated, syngeneic recipients. Animals were monitored for leukemia onset by regular blood counts (FIG. 22a). […] Typically, animals receiving HPCs transduced with these miRNAs develop an acute leukemia by 75 days, while >80% of vector controls or animals receiving miR-30 (n=5, p=0.15) remain disease free at this time (FIG. 22b). Based on the in vitro screen and prediction, additional miRNAs were tested. […] Thus, miR-19b, miR-20a, miR-26a, miR-223 and also the less abundant miR-27a and miR-148/152 behave as oncogenes in a murine T-ALL model.\nThe mouse T-ALL model has been reported (Pear, et al., 1996), (Wendel, et al., 2004). Data were analyzed in Kaplan-Meier format using the log-rank (Mantel-Cox) test for statistical significance. […]"}},
  "data": [
    {"substance": "miR-148: miRNA, UCAGUGCACUACAGAACUUUGU (SEQ ID NO: 8) (expressed or natural sequence; listed as Homo sapiens)", "values": [
      {"measurement": "regulation of tumor suppressor genes", "setting": "[1]", "result": "regulate IKZF1, NF1 and FBXW7"},
      {"measurement": "leukemia onset / leukemia-free survival", "setting": "NOTCH1-induced T-ALL", "result": "significant disease acceleration"}
    ]}
  ]
}
